Numbered stars: 1 amine (or outer) side, 2 acyl side, 3 side chain; on linkers, the order of the positions; unused ones are H or OH. Bridge positions count the residues as written; N and C are the ends. Square brackets hold non-standard residues; d marks the D form. Peptide text beside a SMILES is read from it. I, II: the chains in the order shown. Actinocin(9to1) = Cc1c2oc3c(C)ccc(C(=O)[*:1])c3nc-2c(C(=O)[*:2])c(N)c1=O; NMeV = CN[C@H](C(=O)O)C(C)C; Sar = CNCC(=O)O
Legend:
[1] = test system: terminal deoxynucleotidyl transferase (TdT); experiment: In vitro induction of TdT in fraction B bone marrow cells from NIH Swiss nu/nu mice; type: cell-based; conditions: for TdT induction relative to the thymosin fraction 5 level: BSA fraction B from bone marrow; for TdT specific activity: peak I activity only, incubation 18 hours with 50 ng/ml
Text: The method of Raidt et al., J. Exp. Med. 128, 681 (1968) was used to fractionate different cell suspensions from spleen, thymus, lymph nodes or bone marrow. Four layers of cells were formed at the interfaces of the discontinuous BSA gradient: Fraction A between 10% and 23% BSA; fraction B between 23-26%; fraction C between 26-29%; and fraction D between 29-33% BSA. BSA (Path-O-Cyte 5, lots 25 and 26) was obtained from Miles Research Products (Elkhart, Ind.). Fractionated cells were washed three times in Ham's F-12 medium.
(§1) The procedure for enzyme extraction has been described previously by Pazmino et al., J. Immunol. 119, 494 (1977).
(§2) The TdT assay was adapted from Kung et al, J. Exp. Med. 141, 855 (1975). One unit of enzyme activity was defined as the amount catalyzing the incorporation of 1 pmol of dGTP into acid insoluble material per hour. The specific activity was calculated from the total enzyme activity recovered from phosphocellulose per 10^8 nucleated viable cells.
Ten daily injections of 100 μg were given intraperitoneally to six-week-old NIH Swiss nu/nu, which were sacrificed 24 hours after the last injection. For the in vitro induction experiments, cells were washed three times after BSA gradient fractionation in Ham's F-12 medium containing 100 U/ml penicillin, 100 μg/ml streptomycin and 10 μg/ml gentomycin. After being washed, cell concentrations were adjusted to 1×10^8 cells/dish in 20 ml of Ham's F-12 medium containing antibiotics, 5% fetal bovine serum (Flow Laboratories, Rockville, Md.) and different concentrations of thymosin or spleen fraction 5 or of any of the different peptides isolated from thymosin. After incubation for various periods of time, cells were collected, washed twice with Ham's F-12 and extracted as previously described for TdT activity.
The following peptides, isolated from thymosin, were assayed for their ability to induce TdT in vitro: α1, β1, β3, β4, and synthetic α-1.
(§3) Actinomycin D at 0.5 μg/ml was incubated for 12 hours in the presence of thymosin with fraction B from the bone marrow of NIH Swiss nu/nu mice to study their effect on TdT induction. To follow the effect of Actinomycin D on RNA synthesis, cells were labeled with [^3 H] uridine (10 μCi/ml) for the last 90 minutes of incubation.

RNA synthesis = experiment: Effect of Actinomycin D on RNA synthesis ([3H] uridine labeling) in fraction B bone marrow cells; type: cell-based, mice; conditions: 0.5 μg/ml, 12 hours, in the presence of thymosin
Experimental: as §3

[2] = test system: terminal deoxynucleotidyl transferase (TdT); experiment: In vivo TdT assay in thymocytes from hydrocortisone acetate treated C57BL/6J mice; conditions: for TdT specific activity: daily for 9 to 11 days, thymocytes
Experimental: as §1, §2
Thymosin activity was also tested by a in vivo TdT assay. Different doses of thymosin fraction 5 and other purified thymosin polypeptides were injected into hydrocortisone acetate treated C57BL/6J mice daily for 9 to 11 days. The animals were sacrificed, thymocytes prepared and TdT activity determined using the method described by Pazmino et al., J. Immunol. 119, 494 (1977). […]

[3] = Isoelectric focusing (isoelectric point); type: physicochemical
Experimental: Isoelectric focusing was conducted for 90 minutes using a constant power of 25 watts (LKB Model 2103 power supply). The gels were fixed in 20% trichloroacetic acid for one hour. They were stained in 0.1% Coomassie Blue in 20% trichloroacetic acid and destained in 10% trichloroacetic acid.

[4] = test system: TdT positive cells in T-cell populations; conditions: partially purified peptides; Low and Goldstein 1978; cited from earlier work
[5] = FIG. 3, bone marrow fraction B cells

Cc1c2oc3c(C)ccc(C(=O)N[C@@H]4C(=O)N[C@H](C(C)C)C(=O)N5CCC[C@H]5C(=O)N(C)CC(=O)N(C)[C@@H](C(C)C)C(=O)O[C@@H]4C)c3nc-2c(C(=O)N[C@@H]2C(=O)N[C@H](C(C)C)C(=O)N3CCC[C@H]3C(=O)N(C)CC(=O)N(C)[C@@H](C(C)C)C(=O)O[C@@H]2C)c(N)c1=O [actinomycin D, Actinomycin D, reference compound] (I: T[dV]P[Sar][NMeV] / II: T[dV]P[Sar][NMeV]; ester I:1-I:C, II:1-II:C; linker I:N-II:N via Actinocin(9to1))
effect on induction of TdT by thymosin ([1]; 0.5 μg/ml actinomycin D, 12 hours, in the presence of thymosin): inhibited, as is the induction of TdT
inhibition of RNA synthesis (RNA synthesis): greater than 95%

Thymosin β3
TdT specific activity ([2]; 1 μg/infection): 2758.6 p moles (3HdGTP/30 min/10^8 ce
TdT specific activity ([2]; 10 μg/infection): 2954.3 p moles (3HdGTP/30 min/10^8 ce
activity in inducing TdT in vivo compared with thymosin fraction 5 ([2]; One μg of β3 vs 100 μg of thymosin fraction 5): as active in inducing TdT in vivo as 100 μg of thymosin fraction 5
shape of TdT dose response [1]: increases as the doses increase
TdT induction relative to the thymosin fraction 5 level [1]: ~80%
concentration with significant TdT induction [1, 5]: 1 ng/mL
optimal concentration for TdT induction [1, 5]: 10 ng/mL
effect on TdT induction at higher concentrations ([1]; FIG. 3, β3 even at 500 ng/ml): no inhibition of induction was observed
TdT specific activity [1]: 145.0 picomoles 3HdGTP/hour/10^8 cel
isoelectric point (pI) [3]: 5.2
induction of TdT positive cells in T-cell populations [4]: induce TdT positive cells

Thymosin β4
shape of TdT dose response [1]: increases as the doses increase
TdT induction relative to the thymosin fraction 5 level [1]: 30%
TdT specific activity [1]: 58.0 picomoles 3HdGTP/hour/10^8 cel
isoelectric point (pI) [3]: 5.1
induction of TdT positive cells in T-cell populations [4]: induce TdT positive cells

Source: US4297276A, “Thymosin beta 3 and beta 4” (Hoffman-La Roche Inc., priority 1980, dated 1981)
